# Experimental data from patent publication US20220409723A1, “NOVEL VACCINE ADJUVANT COMPOSITION INCLUDING BAVACHIN” (KOREA INSTITUTE OF ORIENTAL MEDICINE, priority 2019, published 2022).
# What was measured:
# C57/BL6 mice [1] = test: OVA-specific IgG antibody titer in mouse sera by ELISA; format: in vivo; details: mice injected s.c. with bavachin (10 or 100 μg) together with OVA (10 μg) vs OVA alone; sera at 28 and 42 days; FIG. 1
# Description: (§1) C57/BL6 mice were immunized with a mixture of OVA (10 μg) and bavachin (10 μg) or a mixture of OVA (10 μg) and bavachin (100 μg) by subcutaneous injection once every 1, 3, and 4 weeks. In this regard, those injected with OVA (10 μg) alone was used as a control.
# At 28 days and 42 days after the first immunization in Example 2, mouse sera were collected, and the titers of antigen-specific IgG antibodies in the sera were measured by way of ELISA (FIG. 1). At this time, in the ELISA method, an OVA-coated plate was blocked, and then sera of a control group and an experimental group were incubated at various serial dilution rates. Thereafter, horseradish peroxidase-conjugated mouse-IgG and IgG1 antibodies were added, and a substrate was added and allowed to react, followed by measurement with an ELISA reader.
# [2] = system: splenocytes and lymph node cells; test: Cytokines secreted from splenocytes and lymph node cells by CBA; format: cell-based, mouse; details: cells from mice injected with bavachin together with OVA vs OVA alone; day 28; treated with OVA 48 hours; FIG. 4
# Description: as §1
# (§2) Briefly, at 28 days after the first immunization, lymph nodes and spleens were removed from 5 mice per the treated mouse group (0.5% CMC (CON), OVA, Bavachin […], OVA+Bavachin), and ground to isolate cells from the tissue capsule. The spleens were subjected to hemolysis by treatment with an RBC lysis buffer, and splenocytes were isolated.
# (§3) The isolated splenocytes and lymph node cells were dispensed in a 96-well-plate at a density of 1×10^6 cells/well, followed by treated with OVA for 48 hours. Thereafter, cell proliferation was measured by MTS (FIG. 3), and cytokines (IFN-γ, IL-2, IL-4, IL-6, IL-10, and TNF) secreted from the cells were measured by CBA (FIG. 4).
# C57/BL6 mice [3] = test: Serum immunoglobulin isotyping assay (CBA isotyping kit); format: in vivo, mouse; details: mice injected with bavachin together with OVA vs OVA alone; FIG. 2
# Description: as §1
# Antibody subclasses in the mouse sera collected in Example 3 were stained with CBA (Cytometric Bead Array) isotyping kit and analyzed by FAGS (FIG. 2).
# [4] = system: splenocytes and lymph node cells; test: Antigen-specific cell proliferation of splenocytes and lymph node cells by MTS; format: cell-based, mouse; details: cells from mice injected with bavachin together with OVA vs OVA alone; day 28; treated with OVA 48 hours; FIG. 3
# Description: as §1, §2, §3
# C57/BL6 mice [5] = test: Total numbers of splenocytes and lymph node cells; format: in vivo, mouse; details: mice injected with bavachin together with OVA vs OVA alone; day 28; FIG. 5
# Description: as §1, §2
# The total numbers of the splenocytes and lymph node cells obtained in Example 5 were counted (FIG. 5).
# C57/BL6 mice [6] = test: Percentages of effector T cells in lymph node cells by FACS analysis; format: in vivo, mouse; details: mice injected with bavachin together with OVA vs OVA alone; FIG. 7
# Description: as §1, §2
# Further, percentages of CD44^+CD62L^−CD4 cells and CD44^+CD62L^−CD8 cells, which are effector T cells, were compared by performing FAGS analysis of the lymph node cells (FIG. 7).
# C57/BL6 mice [7] = test: Percentages of CD4 and CD8 cells in splenocytes by FACS analysis; format: in vivo, mouse; details: mice injected with bavachin together with OVA vs OVA alone; FIG. 6
# Description: as §1, §2
# Therefore, percentages of CD4 cells and CD8 cells were compared by performing FAGS analysis of the splenocytes (FIG. 6).
smiles,measurement,setting,value
CC(C)=CCc1cc2c(cc1O)O[C@H](c1ccc(O)cc1)CC2=O [bavachin],OVA-specific antibody titers,C57/BL6 mice [1],significantly increased
same,"levels of cytokines (IFN-γ, IL-2, IL-4, IL-6, IL-10, and TNF) secreted from lymph node cells",[2],relatively high levels
same,"levels of cytokines (IFN-γ, IL-2, IL-4, IL-6, IL-10, and TNF) secreted from splenocytes",[2],relatively high levels
same,IgA immunoglobulin level in sera,C57/BL6 mice [3],relatively high levels
same,IgG1 immunoglobulin level in sera,C57/BL6 mice [3],relatively high levels
same,cell proliferation ability of lymph node cells,[4],relatively excellent cell proliferation ability
same,cell proliferation ability of splenocytes,[4],relatively excellent cell proliferation ability
same,number of lymph node cells,C57/BL6 mice [5],relatively high levels
same,number of splenocytes,C57/BL6 mice [5],no significant difference
same,percentages of effector T cells (CD44+CD62L−CD4 and CD44+CD62L−CD8) in lymph node cells,C57/BL6 mice [6],relatively high levels
same,percentage of CD4 cells in splenocytes,C57/BL6 mice [7],relatively high levels
same,percentage of CD8 cells in splenocytes,C57/BL6 mice [7],relatively high levels
